Values quoted from earlier work as cited in patent publication US8450379B2, “Methods for treating migraine” (Corcept Therapeutics, Inc., priority 2002, dated 2013).

Experiments:
[1] = target: T1, Mineralocorticoid receptors (MRs) (Homo sapiens, UniProt P08235); settings: MR versus GR
T1 sequence (P08235 1-984): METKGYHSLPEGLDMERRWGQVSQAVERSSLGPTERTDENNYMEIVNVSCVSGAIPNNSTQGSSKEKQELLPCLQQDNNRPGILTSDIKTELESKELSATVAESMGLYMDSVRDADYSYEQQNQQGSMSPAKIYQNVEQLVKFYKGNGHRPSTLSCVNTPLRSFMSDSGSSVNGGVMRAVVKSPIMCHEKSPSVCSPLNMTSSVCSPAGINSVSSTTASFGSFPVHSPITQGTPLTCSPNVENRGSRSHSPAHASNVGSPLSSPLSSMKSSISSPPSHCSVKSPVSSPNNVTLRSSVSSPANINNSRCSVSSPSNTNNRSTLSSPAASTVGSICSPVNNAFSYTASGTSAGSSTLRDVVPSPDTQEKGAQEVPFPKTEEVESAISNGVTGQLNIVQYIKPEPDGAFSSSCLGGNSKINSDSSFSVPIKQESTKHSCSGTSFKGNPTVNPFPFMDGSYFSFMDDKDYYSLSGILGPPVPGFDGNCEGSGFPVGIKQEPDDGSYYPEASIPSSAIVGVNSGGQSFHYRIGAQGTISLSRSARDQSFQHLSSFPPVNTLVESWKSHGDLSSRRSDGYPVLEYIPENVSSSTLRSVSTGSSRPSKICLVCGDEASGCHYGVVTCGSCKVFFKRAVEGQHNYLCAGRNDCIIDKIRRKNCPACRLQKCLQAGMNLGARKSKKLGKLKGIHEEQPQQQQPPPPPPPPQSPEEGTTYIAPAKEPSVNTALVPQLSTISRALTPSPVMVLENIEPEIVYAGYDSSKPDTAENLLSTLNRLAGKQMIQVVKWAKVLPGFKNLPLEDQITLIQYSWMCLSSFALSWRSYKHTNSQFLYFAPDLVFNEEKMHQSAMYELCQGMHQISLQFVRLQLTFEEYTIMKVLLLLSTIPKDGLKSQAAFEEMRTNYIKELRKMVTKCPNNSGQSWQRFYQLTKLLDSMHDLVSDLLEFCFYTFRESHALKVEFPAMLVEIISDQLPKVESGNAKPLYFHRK

[2] = target: T2, glucocorticoid (GR) receptors (Homo sapiens, UniProt P04150)
T2 sequence (P04150 1-777): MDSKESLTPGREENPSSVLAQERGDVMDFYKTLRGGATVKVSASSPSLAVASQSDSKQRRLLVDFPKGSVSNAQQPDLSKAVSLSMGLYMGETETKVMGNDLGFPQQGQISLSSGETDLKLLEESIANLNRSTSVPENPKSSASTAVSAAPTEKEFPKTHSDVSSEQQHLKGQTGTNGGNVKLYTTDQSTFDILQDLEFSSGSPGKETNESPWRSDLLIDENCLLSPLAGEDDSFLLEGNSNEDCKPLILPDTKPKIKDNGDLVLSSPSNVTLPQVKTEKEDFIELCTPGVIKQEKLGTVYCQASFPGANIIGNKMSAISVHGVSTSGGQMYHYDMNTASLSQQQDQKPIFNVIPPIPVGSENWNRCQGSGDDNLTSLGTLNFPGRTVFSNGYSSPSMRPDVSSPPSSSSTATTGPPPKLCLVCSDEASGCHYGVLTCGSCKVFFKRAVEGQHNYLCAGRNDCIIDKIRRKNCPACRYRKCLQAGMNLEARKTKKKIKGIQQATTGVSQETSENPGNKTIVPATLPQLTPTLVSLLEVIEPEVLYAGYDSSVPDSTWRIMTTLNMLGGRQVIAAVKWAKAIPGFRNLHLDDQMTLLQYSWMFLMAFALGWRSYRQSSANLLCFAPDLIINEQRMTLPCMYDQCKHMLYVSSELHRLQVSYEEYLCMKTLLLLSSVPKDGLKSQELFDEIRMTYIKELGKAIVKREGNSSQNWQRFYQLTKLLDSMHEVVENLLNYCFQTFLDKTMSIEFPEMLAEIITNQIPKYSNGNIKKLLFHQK

[3] = one study (Kawai)
[4] = target: T3, progesterone receptors (Homo sapiens, UniProt P06401)
T3 sequence (P06401 1-933): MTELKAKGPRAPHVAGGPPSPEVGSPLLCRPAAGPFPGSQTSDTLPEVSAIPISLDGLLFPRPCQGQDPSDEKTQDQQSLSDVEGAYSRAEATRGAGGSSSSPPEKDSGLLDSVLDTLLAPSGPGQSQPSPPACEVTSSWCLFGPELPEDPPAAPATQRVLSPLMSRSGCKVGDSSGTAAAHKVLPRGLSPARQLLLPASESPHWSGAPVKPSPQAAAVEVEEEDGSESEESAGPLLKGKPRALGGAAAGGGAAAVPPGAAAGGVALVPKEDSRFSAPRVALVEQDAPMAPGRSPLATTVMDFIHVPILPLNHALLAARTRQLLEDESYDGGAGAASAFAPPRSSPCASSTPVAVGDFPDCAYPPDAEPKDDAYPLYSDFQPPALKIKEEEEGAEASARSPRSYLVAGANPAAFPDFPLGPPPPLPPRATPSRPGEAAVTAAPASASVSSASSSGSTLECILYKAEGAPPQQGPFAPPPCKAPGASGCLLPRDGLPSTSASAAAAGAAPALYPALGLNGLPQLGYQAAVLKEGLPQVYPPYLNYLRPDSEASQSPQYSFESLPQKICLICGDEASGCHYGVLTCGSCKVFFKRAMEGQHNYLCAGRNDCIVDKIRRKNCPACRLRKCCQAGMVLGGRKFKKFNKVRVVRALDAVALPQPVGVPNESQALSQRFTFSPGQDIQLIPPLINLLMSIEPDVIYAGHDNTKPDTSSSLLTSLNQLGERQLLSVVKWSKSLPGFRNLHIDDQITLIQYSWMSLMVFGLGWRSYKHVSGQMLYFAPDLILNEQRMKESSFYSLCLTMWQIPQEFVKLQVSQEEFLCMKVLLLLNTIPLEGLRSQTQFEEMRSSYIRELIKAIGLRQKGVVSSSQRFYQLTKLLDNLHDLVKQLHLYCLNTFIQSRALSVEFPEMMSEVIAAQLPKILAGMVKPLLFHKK

C[C@]12CCC(=O)C=C1CC[C@@H]1[C@@H]2[C@@H](O)C[C@@]2(C)[C@H]1CC[C@]2(O)C(=O)CO [cortisol]
affinity of MR for cortisol relative to GR binding of glucocorticoids [1]: ten-fold higher affinity

CC#C[C@]1(O)CC[C@H]2[C@@H]3CCC4=CC(=O)CCC4=C3[C@@H](c3ccc(N(C)C)cc3)C[C@@]21C [Mifepristone, (11β,17β) 11[4 (dimethylamino)phenyl]-17 hydroxy-17 (1 propynyl)estra-4,9 dien-3 one]
antagonism of glucocorticoid (GR) receptor [2]: powerful antagonist | fraction of the daily dose excreted in the urine [3]: less than 0.5 % of the daily dose | antagonism of progesterone receptor [4]: powerful antagonist

CC#C[C@]1(O)CC[C@H]2[C@@H]3CCC4=CC(=O)CCC4=C3[C@@H](c3ccc(OCCN(C)C)cc3)C[C@@]21C [RU009, 11β-(4-dimethylaminoethoxyphenyl)-17α-propynyl-17β-hydroxy-4,9-estradien-3-one]
antagonism of glucocorticoid (GR) receptor [2]: GR antagonist effects
